Active and inactive are the calls of the source.
Tests used:
Estrogen receptor beta = Estrogen receptor beta (Homo sapiens, UniProt Q92731);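 further: recombinant ER-beta bound to coactivator SRC1 peptide in presence of estradiol agonist; inhibitors block coactivator peptide binding and lower the FRET signal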
[1] = molecular target: T1, Sentrin-specific protease 8 (Homo sapiens, UniProt Q96LD8); format: functional;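 further: luminescence read-out of SENP8 inhibition, dose-response confirmation following an ultra-high-throughput screen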
T1 sequence (Q96LD8 whole entry): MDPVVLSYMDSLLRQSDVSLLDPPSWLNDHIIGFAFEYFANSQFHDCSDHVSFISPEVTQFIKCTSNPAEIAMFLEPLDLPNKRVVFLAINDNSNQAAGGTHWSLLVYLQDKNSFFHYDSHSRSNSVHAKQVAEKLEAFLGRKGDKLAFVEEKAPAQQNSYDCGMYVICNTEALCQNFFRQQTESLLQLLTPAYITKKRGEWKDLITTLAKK

[2] = molecular target: T2, Sentrin-specific protease 7 (Homo sapiens, UniProt Q9BQF6); format: functional;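 further: Luminescence-based dose-response confirmation of ultra-high-throughput screening hits, measuring inhibition of SENP7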
T2 sequence (Q9BQF6 whole entry): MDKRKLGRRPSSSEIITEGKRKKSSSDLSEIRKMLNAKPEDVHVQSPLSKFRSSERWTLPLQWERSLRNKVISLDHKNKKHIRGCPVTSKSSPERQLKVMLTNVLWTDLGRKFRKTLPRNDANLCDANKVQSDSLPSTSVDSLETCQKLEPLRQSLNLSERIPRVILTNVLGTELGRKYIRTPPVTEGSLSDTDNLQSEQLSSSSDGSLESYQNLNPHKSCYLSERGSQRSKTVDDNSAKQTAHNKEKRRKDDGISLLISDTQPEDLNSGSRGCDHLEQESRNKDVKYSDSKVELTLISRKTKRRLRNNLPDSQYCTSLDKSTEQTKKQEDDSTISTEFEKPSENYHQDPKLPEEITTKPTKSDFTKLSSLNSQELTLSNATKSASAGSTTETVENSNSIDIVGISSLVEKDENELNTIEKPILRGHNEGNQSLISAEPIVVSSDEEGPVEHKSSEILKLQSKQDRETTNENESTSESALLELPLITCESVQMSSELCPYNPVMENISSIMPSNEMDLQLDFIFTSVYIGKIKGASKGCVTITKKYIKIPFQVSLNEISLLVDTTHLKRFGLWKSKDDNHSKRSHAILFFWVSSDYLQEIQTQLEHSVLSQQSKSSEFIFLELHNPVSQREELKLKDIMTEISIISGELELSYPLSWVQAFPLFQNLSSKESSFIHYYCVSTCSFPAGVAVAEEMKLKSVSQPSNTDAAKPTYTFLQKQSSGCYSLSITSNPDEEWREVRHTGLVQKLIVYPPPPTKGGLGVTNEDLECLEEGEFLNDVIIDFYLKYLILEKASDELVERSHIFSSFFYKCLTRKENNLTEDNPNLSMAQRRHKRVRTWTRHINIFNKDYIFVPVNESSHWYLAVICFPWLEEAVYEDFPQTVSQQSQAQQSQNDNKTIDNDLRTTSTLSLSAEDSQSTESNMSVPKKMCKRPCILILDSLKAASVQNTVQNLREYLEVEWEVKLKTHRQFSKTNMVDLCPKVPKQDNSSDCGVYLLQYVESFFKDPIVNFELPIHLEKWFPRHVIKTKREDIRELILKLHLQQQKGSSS

[3] = Luminescence Cell-Based Dose Response HTS to Identify Activators of Luciferase Translation or Activity in H4 […] Cells. [Related pubchem assays: 1829 (Project Summary), 1814 (Primary HTS)]; format: functional
[4] = Luminescence Cell-Based Dose Confirmation HTS to Identify Activators of 5'UTR Stem-Loop Driven Alpha-Synuclein mRNA Translation in H4 Neuroglioblastoma Cells. [Related pubchem assays: 1829 (Project Summary), 1814 (Primary HTS)]; format: functional
H4 = experiment: Luminescence Cell-Based Dose Response HTS to Identify Activators of 5'UTR Stem-Loop Driven Prion Protein mRNA Translation in H4 Neuroglioblastoma Cells. [Related pubchem assays: 1829 (Project Summary), 1814 (Primary HTS)]; format: functional; settings: Homo sapiens
Caspase-3 = molecular target: T3, Caspase-3 (Homo sapiens, UniProt P42574); format: functional;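 further: Dose-response selectivity test against caspase-3 for candidate inhibitors of sentrin-specific proteases (SENPs)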
T3 sequence (P42574 whole entry): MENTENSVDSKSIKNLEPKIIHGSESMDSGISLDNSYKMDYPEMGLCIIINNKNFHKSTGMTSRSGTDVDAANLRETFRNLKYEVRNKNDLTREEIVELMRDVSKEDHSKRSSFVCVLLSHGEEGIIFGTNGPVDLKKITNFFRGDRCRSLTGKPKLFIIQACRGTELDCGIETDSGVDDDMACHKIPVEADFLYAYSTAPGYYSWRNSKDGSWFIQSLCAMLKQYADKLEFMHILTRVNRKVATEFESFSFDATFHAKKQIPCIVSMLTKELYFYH

[5] = molecular target: T4, Sentrin-specific protease 6 (Homo sapiens, UniProt Q9GZR1); format: functional;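 further: Luminescence-based dose-response confirmatory assay of SENP6 inhibition, following up an ultra-high-throughput screen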
T4 sequence (Q9GZR1 whole entry): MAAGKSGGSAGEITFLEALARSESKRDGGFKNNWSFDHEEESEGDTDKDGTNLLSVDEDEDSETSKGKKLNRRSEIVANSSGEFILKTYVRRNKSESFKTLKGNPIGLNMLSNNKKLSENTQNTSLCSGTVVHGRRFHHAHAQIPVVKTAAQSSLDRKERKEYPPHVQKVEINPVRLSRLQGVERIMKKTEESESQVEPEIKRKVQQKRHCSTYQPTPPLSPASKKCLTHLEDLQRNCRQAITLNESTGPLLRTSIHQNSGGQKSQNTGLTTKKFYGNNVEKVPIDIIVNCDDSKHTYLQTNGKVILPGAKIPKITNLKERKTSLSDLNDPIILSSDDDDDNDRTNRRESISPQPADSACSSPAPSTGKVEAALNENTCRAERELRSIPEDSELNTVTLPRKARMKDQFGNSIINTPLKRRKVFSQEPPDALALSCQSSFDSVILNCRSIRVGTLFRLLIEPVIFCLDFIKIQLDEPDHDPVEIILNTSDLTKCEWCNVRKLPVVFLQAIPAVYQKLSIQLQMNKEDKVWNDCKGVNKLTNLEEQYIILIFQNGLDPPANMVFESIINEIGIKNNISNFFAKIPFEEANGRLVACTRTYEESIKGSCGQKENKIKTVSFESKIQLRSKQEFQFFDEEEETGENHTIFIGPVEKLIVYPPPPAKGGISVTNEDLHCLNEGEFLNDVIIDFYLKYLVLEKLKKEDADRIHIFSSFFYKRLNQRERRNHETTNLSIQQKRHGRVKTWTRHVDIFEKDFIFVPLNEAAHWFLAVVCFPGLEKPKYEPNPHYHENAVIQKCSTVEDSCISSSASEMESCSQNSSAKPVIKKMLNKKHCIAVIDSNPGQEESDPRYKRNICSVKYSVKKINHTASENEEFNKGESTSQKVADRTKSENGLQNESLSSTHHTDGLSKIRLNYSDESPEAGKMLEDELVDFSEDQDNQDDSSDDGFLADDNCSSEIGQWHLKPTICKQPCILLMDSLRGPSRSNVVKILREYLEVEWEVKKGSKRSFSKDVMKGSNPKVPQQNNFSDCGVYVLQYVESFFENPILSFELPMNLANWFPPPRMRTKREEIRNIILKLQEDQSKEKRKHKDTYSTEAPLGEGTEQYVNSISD

Estrogen receptor = molecular target: T5, Estrogen receptor (Homo sapiens, UniProt P03372);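 further: potency for inhibiting coactivator peptide recruitment to the receptor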
T5 sequence (P03372 whole entry): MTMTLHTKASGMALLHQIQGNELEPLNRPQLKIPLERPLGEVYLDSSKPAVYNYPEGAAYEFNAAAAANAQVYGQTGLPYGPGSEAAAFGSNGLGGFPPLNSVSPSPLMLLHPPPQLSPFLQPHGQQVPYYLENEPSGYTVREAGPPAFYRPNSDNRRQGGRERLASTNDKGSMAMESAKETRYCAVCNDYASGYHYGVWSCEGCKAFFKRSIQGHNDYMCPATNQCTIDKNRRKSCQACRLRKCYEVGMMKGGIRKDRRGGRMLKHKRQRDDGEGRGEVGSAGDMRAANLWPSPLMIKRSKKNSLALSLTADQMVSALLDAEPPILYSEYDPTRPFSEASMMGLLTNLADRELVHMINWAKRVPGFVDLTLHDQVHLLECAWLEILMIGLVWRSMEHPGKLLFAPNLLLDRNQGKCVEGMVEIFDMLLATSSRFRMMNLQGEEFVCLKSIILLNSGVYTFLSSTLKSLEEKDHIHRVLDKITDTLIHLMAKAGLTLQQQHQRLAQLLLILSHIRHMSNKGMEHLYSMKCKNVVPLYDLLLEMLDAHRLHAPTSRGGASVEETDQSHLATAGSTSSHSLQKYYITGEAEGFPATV

[6] = molecular target: T6, Histone-lysine N-methyltransferase NSD2 (Homo sapiens, UniProt O96028); format: biochemical
T6 sequence (O96028 whole entry): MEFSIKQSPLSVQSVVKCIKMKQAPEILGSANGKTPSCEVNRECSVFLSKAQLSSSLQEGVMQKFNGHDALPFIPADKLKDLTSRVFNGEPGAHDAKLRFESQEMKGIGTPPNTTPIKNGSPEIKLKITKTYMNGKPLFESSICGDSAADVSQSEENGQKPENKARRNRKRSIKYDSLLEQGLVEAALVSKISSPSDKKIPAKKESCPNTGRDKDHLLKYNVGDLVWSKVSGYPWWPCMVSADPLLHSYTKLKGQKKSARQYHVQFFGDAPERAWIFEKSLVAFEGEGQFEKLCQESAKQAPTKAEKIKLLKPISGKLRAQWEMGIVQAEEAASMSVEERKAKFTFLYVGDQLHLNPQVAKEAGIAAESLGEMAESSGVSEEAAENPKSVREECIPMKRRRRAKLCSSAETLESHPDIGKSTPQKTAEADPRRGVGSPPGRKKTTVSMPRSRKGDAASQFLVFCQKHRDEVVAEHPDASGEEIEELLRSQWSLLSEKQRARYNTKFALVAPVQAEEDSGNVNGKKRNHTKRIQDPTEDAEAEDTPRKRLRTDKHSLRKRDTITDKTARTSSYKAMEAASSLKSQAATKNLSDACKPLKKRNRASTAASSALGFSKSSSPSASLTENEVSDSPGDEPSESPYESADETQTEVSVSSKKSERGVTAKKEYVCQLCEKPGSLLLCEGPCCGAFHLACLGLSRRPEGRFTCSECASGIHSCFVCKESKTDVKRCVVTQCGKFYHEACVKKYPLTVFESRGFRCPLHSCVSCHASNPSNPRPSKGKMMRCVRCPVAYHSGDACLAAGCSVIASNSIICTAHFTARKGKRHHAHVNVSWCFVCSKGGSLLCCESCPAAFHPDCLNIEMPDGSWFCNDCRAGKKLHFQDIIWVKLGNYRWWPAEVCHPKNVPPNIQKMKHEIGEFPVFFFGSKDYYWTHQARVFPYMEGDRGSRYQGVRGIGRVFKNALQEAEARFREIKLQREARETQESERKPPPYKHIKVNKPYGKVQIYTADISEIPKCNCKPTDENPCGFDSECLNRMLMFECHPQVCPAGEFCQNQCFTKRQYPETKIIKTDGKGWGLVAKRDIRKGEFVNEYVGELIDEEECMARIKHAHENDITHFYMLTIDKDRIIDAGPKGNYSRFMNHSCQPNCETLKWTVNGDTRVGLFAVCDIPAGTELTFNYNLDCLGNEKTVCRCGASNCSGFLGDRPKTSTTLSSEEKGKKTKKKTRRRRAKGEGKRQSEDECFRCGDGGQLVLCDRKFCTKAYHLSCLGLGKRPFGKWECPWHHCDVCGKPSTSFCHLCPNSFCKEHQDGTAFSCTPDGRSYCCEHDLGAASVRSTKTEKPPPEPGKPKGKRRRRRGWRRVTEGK

[7] = A Cell Based Secondary Assay To Explore Cytotoxicity of Compounds that Sensitize Mycobacterium Tuberculosis to Beta-Lactam Antibiotics.; format: functional
[8] = viability of uninfected HEp-2 cells – cell-based, HTS, cytotoxicity control for RSV inhibitor project, dose response (AID 2410); format: functional; settings: human respiratory syncytial virus
[9] = viability of PTEN-deleted HCT116 cells – cell-based, HCT116 PTEN knockout, dose response (AID 1047); format: functional;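 further: HCT116 colon tumor cells with PTEN knocked out; cells exposed to compound for 60 hours before readout; potency for loss of cell viability measured by luminescence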
[10] = viability of HCT116 lacking mutant beta-catenin – cell-based, human colon tumor, dose response (AID 1045); format: functional;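 further: HCT116 colon tumor cells with beta catenin knocked out; cells exposed to compound for 60 hours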

Estrogen receptor beta, sequence (Q92731 whole entry): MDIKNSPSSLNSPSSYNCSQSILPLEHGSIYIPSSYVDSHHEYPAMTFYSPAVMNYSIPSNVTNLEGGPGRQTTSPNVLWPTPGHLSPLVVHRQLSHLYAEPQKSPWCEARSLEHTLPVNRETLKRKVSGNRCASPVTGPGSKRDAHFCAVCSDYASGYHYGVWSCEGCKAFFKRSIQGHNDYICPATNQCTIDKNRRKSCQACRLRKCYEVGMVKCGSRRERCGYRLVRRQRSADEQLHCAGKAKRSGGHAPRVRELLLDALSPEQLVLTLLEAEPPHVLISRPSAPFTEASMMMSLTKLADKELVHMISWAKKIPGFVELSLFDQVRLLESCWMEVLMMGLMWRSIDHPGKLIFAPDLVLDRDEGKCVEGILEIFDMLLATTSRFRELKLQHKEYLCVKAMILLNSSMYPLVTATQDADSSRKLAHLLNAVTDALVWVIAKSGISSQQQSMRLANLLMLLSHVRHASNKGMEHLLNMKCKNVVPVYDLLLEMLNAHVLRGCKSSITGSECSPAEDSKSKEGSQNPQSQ

With `CC(C)CSc1nc2c(c(=O)[nH]c(=O)n2C)n1CC(O)COc1cccc2ccccc12` (stereo not given) as the compound, how does the IC50 (Estrogen receptor beta) read?
The IC50 was > 50 µM (not active).

Which results are given for `c1ccc(-c2nc(C3CCCCC3)no2)cc1`?
IC50 [1]: > 100 µM (inactive); IC50 [2]: 23.2 µM (active); EC50 [3]: 0.896 µM (active); EC50 [4]: 32.8 µM (active); IC50 (Estrogen receptor beta): > 50 µM (not active); EC50 (H4): > 120 µM (not active); IC50 (Caspase-3): 57.1 µM (active); IC50 [5]: 66.3 µM (active)

Which IC50 (Estrogen receptor) does the source give for `COC(=O)c1ccc2c(c1)N(Cc1nc(-c3cccc(C)c3)oc1C)C(=O)C1CCCN21` (stereo not given) here?
The IC50 was > 50 µM (not active).

Which AC50 [6] does the source give for `CNCCCC1Sc2ccccc2Oc2ccccc21` (stereo not given) here?
Its AC50 is 9.84 µM (active).

Which IC50 (Estrogen receptor) does the source give for `CC(=O)N(C(C)=O)c1c(C#N)c(C)n(-c2ccccc2)c1C(=O)c1ccccc1` here?
The IC50 was > 50 µM (not active).

With `Cc1cc(C)n2nc(SCc3cc(=O)oc4cc(O)ccc34)nc2n1` as the compound, how does the IC50 (Estrogen receptor) read?
The IC50 was 10.1 µM (active).

For `Cc1nc2sc3c(c2c2nnc(SCC(=O)NCc4ccco4)n12)CCCC3`, which CC50 [7] is on record?
The CC50 was 31.8 µM (active).

For `CCC(C)NCCOCCOc1ccc(Cl)c2ccccc12` (stereo not given), which CC50 [7] is on record?
The CC50 was 18.4 µM (active).

With `COC(=O)C1=C(C)NC(=O)/C1=C\c1cc(C)n(-c2c(C)cccc2C)c1C` as the compound, how does the CC50 [8] read?
Its CC50 is 1.88 µM (active).

And the CC50 [7]?
The CC50 was > 40 µM (active).

What does the source list for `Cc1ccsc1/C=N/Nc1ncc(Cl)cc1Cl`?
CC50 [7]: 32.4 µM (active); EC50 [9]: 12.9 µM (active); EC50 [10]: 15.5 µM (active)

— ChEMBL document CHEMBL1201862, “PubChem BioAssay data set” (2004)
